Experimental data reported in US9067949B2, “Benzofuro[3,2-c] pyridines and related analogs as serotonin sub-type 6 (5-HT6) modulators for the treatment of obesity, metabolic syndrome, cognition and schizophrenia” (Albany Molecular Research, Inc., priority 2011, dated 2015).
Counter-ions that a name gives are not always drawn. Like-named read-outs stand apart in the source and are kept apart here.

Experiments:
human 5-HT6 receptor = human 5-HT6 receptor (Homo sapiens (Human), UniProt P50406); assay: 5-HT6 radioligand binding assay (SPA format, [N-methyl-3H]-LSD); details: human 5-HT6 receptor membranes, 10 nM [N-methyl-3H]-LSD, Ki by Cheng-Prusoff, read-out: human 5HT6 Ki
Description: The relative affinities of the various compounds for the 5-HT6 receptor were measured in a radioligand binding assay, using a scintillation proximity assay (SPA) format.
For binding analysis vs. the human receptor, samples were incubated in 50 mM Tris-HCl, pH 7.5, 5 mM MgCl2, 1 mM EDTA (4% DMSO final) with 10 nM [N-methyl-^3H]-LSD (Perkin Elmer), 2.5 ng of human 5-HT6 receptor membranes (Millipore) and 50 μg SPA beads (PVT-PEI-WGA, GE Healthcare) per well in a final volume of 0.2 mL. […] Binding reactions were performed in PicoPlate96 microtiter plates (Perkin Elmer) by consecutively adding 50 μL of each competing compound or buffer, SPA beads, radioligand and 5-HT6 receptor membranes. After an overnight incubation at room temperature on a Nutator mixer, plates were centrifuged for 15 min at 1,500 rpm, followed by incubation in the dark for 10 min. […] Total binding control contained compound dilution buffer only; nonspecific binding is determined in the presence of 100 μM 5-hydroxytryptamine. Specific binding was determined by subtracting nonspecific binding from total binding.
All experiments were performed in duplicate using ten concentrations of competing ligand, with clozapine included as a control in every run. IC50 values were determined from specific binding data using XLfit4.1 curve fitting software from IDBS Ltd. The inhibition constant (Ki) was calculated using the Cheng-Prusoff equation: (Ki=IC50/(1+(L/KD)), where L=concentration of radioligand in the assay, and KD=affinity of the radioligand for the receptor.

Chain of human 5-HT6 receptor (P50406 whole entry): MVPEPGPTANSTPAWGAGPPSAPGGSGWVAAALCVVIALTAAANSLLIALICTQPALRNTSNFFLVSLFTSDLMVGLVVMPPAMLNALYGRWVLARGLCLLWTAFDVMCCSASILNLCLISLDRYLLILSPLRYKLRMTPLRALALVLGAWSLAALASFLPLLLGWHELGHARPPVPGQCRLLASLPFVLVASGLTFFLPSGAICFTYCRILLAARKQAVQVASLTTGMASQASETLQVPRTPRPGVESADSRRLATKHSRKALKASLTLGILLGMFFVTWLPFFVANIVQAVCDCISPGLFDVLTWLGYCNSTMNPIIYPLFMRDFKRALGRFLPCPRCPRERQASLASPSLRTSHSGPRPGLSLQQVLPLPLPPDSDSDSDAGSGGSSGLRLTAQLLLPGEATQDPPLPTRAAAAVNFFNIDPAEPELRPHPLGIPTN

SMILES	Ki (human 5-HT6 receptor; hydrochloride) [nM]	melting point	Ki (human 5-HT6 receptor) [nM]
Cl.[O-][S+](c1ccccc1)c1cc(Cl)c2oc3c(c2c1)CNCC3 (centres unmarked) [Example 93, 6-chloro-8-(phenylsulfinyl)-1,2,3,4-tetrahydrobenzofuro[3,2-c]pyridine hydrochloride]	10	264 to 272 °C (dec.)	
Cl.O=S(=O)(c1cccc(F)c1)c1ccc2oc3c(c2c1)C1CCC(C3)N1 (centres unmarked) [Example 57, 2-(3-Fluorophenyl)sulfonyl-6,7,8,9,10-pentahydro-7,10-epiminocyclohepta[b]benzofuran hydrochloride]		200 to 210 °C	133
Cl.O=S(=O)(c1ccccc1)c1cc(Cl)c2oc3c(c2c1)C(CO)NCC3 (centres unmarked) [Example 85, (6-chloro-8-(phenylsulfonyl)-1,2,3,4-tetrahydrobenzofuro[3,2-c]pyridin-1-yl)methanol hydrochloride]		185 to 187 °C	1.6
CC1NCCc2oc3c(Cl)cc(S(=O)(=O)c4ccccc4)cc3c21.Cl (single isomer, unassigned; (+)) [Example 82a, (+)-6-chloro-1-methyl-8-(phenylsulfonyl)-1,2,3,4-tetrahydrobenzofuro[3,2-c]pyridine hydrochloride]	56	295 °C (dec.)	
Cl.O=S(=O)(c1cccc(C(F)(F)F)c1)c1ccc2oc3c(c2c1)C1CCC(C3)N1 (centres unmarked) [Example 55, 2-(3-Trifluoromethylphenyl)sulfonyl-6,7,8,9,10-pentahydro-7,10-epiminocyclohepta[b]benzofuran hydrochloride]		296 to 298 °C	53
Cl.O=S(=O)(c1cccc(Cl)c1)c1ccc2oc3c(c2c1)C1CCC(C3)N1 (centres unmarked) [Example 56, 2-(3-Chlorophenyl)sulfonyl-6,7,8,9,10-pentahydro-7,10-epiminocyclohepta[b]benzofuran hydrochloride]		285 to 288 °C	31
O=S(=O)(c1ccccc1)c1cc(Cl)c2oc3c(c2c1)CC(O)CC3 (single isomer, unassigned; (+)) [Example 99, (+)-6-chloro-8-(phenylsulfonyl)-1,2,3,4-tetrahydrodibenzo[b,d]furan-2-ol]		238 to 242 °C	1
Cc1cn(S(=O)(=O)c2ccc3oc4c(c3c2)CNCC4)c2ccccc12.Cl [Example 43, 8-(3-Methyl-1H-indol-1-ylsulfonyl)-1,2,3,4-tetrahydrobenzofuro[3,2-c]pyridine hydrochloride]		293 to 296 °C	0.42
Cl.Clc1cc(Sc2ccccc2)cc2c3c(oc12)CCNC3 [Example 91, 6-chloro-8-(phenylthio)-1,2,3,4-tetrahydrobenzofuro[3,2-c]pyridine hydrochloride]		241 to 248 °C (dec.)	12
CN1CCc2oc3cc(S(=O)(=O)c4ccccc4)ccc3c2C1.Cl [Example 61, 2-Methyl-7-(phenylsulfonyl)-1,2,3,4-tetrahydrobenzofuro[3,2-c]pyridine hydrochloride]		242 to 245 °C	18
Cl.O=S(=O)(c1cccc(Cl)c1)c1ccc2oc3c(c2c1)CNCC3 [Example 30, 8-(3-Chlorophenylsulfonyl)-1,2,3,4-tetrahydrobenzofuro[3,2-c]pyridine hydrochloride]		245 to 252 °C (dec.)	6.2
Cl.O=S(=O)(c1ccc(Cl)cc1)c1cc(Cl)c2oc3c(c2c1)CNCC3 [Example 49, 6-Chloro-8-(4-chlorophenylsulfonyl)-1,2,3,4-tetrahydrobenzofuro[3,2-c]pyridine hydrochloride]		282 to 284 °C	1.9
Cl.O=S(=O)(c1cccc(C(F)(F)F)c1)c1ccc2c3c(oc2c1)CCNC3 [Example 63, 7-(3-Trifluoromethylphenylsulfonyl)-1,2,3,4-tetrahydrobenzofuro[3,2-c]pyridine hydrochloride]		290 to 294 °C	2.1
Cl.O=S(=O)(c1ccc(Cl)cc1)c1ccc2oc3c(c2c1)CNCC3 [Example 32, 8-(4-Chlorophenylsulfonyl)-1,2,3,4-tetrahydrobenzofuro[3,2-c]pyridine hydrochloride]		302 to 305 °C	38
Cl.O=S(=O)(c1ccc2oc3c(c2c1)CNCC3)c1cccc2ccccc12 [Example 39, 8-(1-Naphthylsulfonyl)-1,2,3,4-tetrahydrobenzofuro[3,2-c]pyridine hydrochloride]		200 to 202 °C	5
Cl.O=S(=O)(c1cc(Cl)cc(Cl)c1)c1ccc2oc3c(c2c1)CNCC3 [Example 38, 8-(3,5-Dichlorophenylsulfonyl)-1,2,3,4-tetrahydrobenzofuro[3,2-c]pyridine hydrochloride]		312 to 315 °C	17
Cl.Cn1cc(S(=O)(=O)c2cc(Cl)c3oc4c(c3c2)CNCC4)c2ccccc21 [Example 50, 6-Chloro-8-(1-methyl-1H-indol-3-ylsulfonyl)-1,2,3,4-tetrahydrobenzofuro[3,2-c]pyridine]		262 to 264 °C	0.17
Cl.O=S(=O)(c1ccc2oc3c(c2c1)CNCC3)n1ccc2ccc(F)cc21 [Example 42, 8-(6-fluoro-1H-indol-1-ylsulfonyl)-1,2,3,4-tetrahydrobenzofuro[3,2-c]pyridine hydrochloride]		199 to 203 °C	1.5
Cl.O=S(=O)(c1cccc(C(F)(F)F)c1)c1ccc2c3c(oc2c1)CC1CCC3N1 (centres unmarked) [Example 64, 3-(3-Trifluoromethylphenyl)sulfonyl-6,7,8,9,10-pentahydro-7,10-epiminocyclohepta[b]benzofuran hydrochloride]		178 to 183 °C	116
O=S(=O)(c1ccc2sccc2c1)c1cc(Cl)c2oc3c(c2c1)CNCC3 [Example 134]			0.55
CC(O)c1cccc(S(=O)(=O)c2cc(Cl)c3oc4c(c3c2)CNCC4)c1 (centres unmarked) [Example 136]			3
CC(C)(O)COc1cc(S(=O)(=O)c2ccccc2)cc2c3c(oc12)CCNC3 [Example 218]			507

SMILES	Ki (human 5-HT6 receptor; hydrochloride) [nM]	melting point	Ki (human 5-HT6 receptor) [nM]
CC(CO)N1CCc2oc3c(Cl)cc(S(=O)(=O)c4ccccc4)cc3c2C1 (centres unmarked) [Example 152]			3.4
O=S(=O)(c1cc(Cl)c2oc3c(c2c1)CNCC3)c1ccccc1CO [Example 122]			5.4
O=S(=O)(c1ccccc1)c1cc(Cl)c2oc3c(c2c1)CCNCC3 [Example 90, 7-chloro-9-(phenylsulfonyl)-2,3,4,5-tetrahydro-1H-benzofuro[2,3-d]azepine hydrochloride]			0.25
CC1NCCc2oc3c(Cl)cc(S(=O)(=O)c4ccccc4)cc3c21 (racemic) [Example 81a, 6-chloro-1-methyl-8-(phenylsulfonyl)-1,2,3,4-tetrahydrobenzofuro[3,2-c]pyridine hydrochloride]	0.35		
O=S(=O)(c1cc(Cl)c2oc3c(c2c1)CNCC3)c1ccccc1OC(F)(F)F [Example 102]			3.3
CC(C)(O)c1cc(S(=O)(=O)c2ccccc2)cc2c3c(oc12)CCNC3 [Example 220]			55
N#Cc1cc(S(=O)(=O)c2cccc(Cl)c2)cc2c3c(oc12)CCNC3 [Example 213]			1.9
COc1cccc(S(=O)(=O)c2cc(Cl)c3oc4c(c3c2)CNCC4)c1 [Example 123]			1.2
O=S(=O)(c1cccc(C(O)C(F)(F)F)c1)c1cc(Cl)c2oc3c(c2c1)CNCC3 (centres unmarked) [Example 132]			3.3
COc1cc([S+]([O-])c2ccccc2)cc2c3c(oc12)CCNC3 (centres unmarked) [Example 233]			2.4
COc1cc(S(=O)(=O)c2cccs2)cc2c3c(oc12)CCNC3 [Example 192]			0.17
O=S(=O)(c1cncc(C(F)(F)F)c1)c1cc(Cl)c2oc3c(c2c1)CNCC3 [Example 121]			29
CS(=O)(=O)N1CCc2oc3c(Cl)cc(S(=O)(=O)c4ccccc4)cc3c2C1 [Example 144]			492
COc1cc(S(=O)(=O)c2cccc(C(C)(C)O)c2)cc2c3c(oc12)CCNC3 [Example 177]			0.35
O=S(=O)(c1cccnc1)c1cc(Cl)c2oc3c(c2c1)CNCC3 [Example 120]			26
O=S(=O)(c1ccc(F)c(F)c1)c1cc(Cl)c2oc3c(c2c1)CNCC3 [Example 127]			4
O=S(=O)(c1ccc2c(c1)COCC2)c1cc(Cl)c2oc3c(c2c1)CNCC3 [Example 105]			13
CN1CCc2oc3c(Cl)cc(S(=O)(=O)c4ccccc4)cc3c2C1 [Example 116]			1
CC(C)(O)c1ccc(S(=O)(=O)c2cc(Cl)c3oc4c(c3c2)CNCC4)cc1 [Example 108]			1.3
O=S(=O)(c1cccc(F)c1)c1ccc2c3c(oc2c1)CC1CCC3N1 (centres unmarked) [Example 66, 3-(3-Fluorophenyl)sulfonyl-6,7,8,9,10-pentahydro-7,10-epiminocyclohepta[b]benzofuran hydrochloride]			533
COc1cc(S(=O)(=O)c2csc3ccccc23)cc2c3c(oc12)CCNC3 [Example 185]			0.1
